Data set [1] can be described thus: Metabolism in pooled human liver S9 fractions. The settings on record: 40 µg/ml compound; pooled human liver S9, NADPH, 37 °C; 10, 20, 30 min; HPLC. It is filed as in vitro ADME. As for the experimental part: Metabolism of the compounds was determined according to Yang et al.[38] with slight modifications. Briefly, reaction mixture containing 5 mM MgCl2, 2 mM NADPH, 20 µg/ml pooled human liver S9 fractions (Sekisui Xenotech, KS, USA) in 0.05 M Tris-HCl buffer (pH 7.4) was pre-incubated at 37 °C for 5 min. The reaction was initiated by the addition of 40 µg/ml compound 5 or compound 7 and incubation was continued. Aliquots (100 µl) were collected at 10, 20, and 30 min, and an equal volume of acetonitrile was added. The resulting mixture was analyzed by HPLC equipped with a Waters 2998 Photodiode Array Detector and a Waters 2707 Autosampler using a Senshu-Pak Pegasil ODS-SP-100 column (4.6 Ø × 250 mm) with gradient elution of 50–100% acetonitrile for 30 min at the flow rate of 1 ml/min. Statistical analysis was performed using Prism 5 for Mac OS X, version 5.0 f (GraphPad Software).

Data set [2] has as its system Streptococcus agalactiae JCM5671. Description: MIC by broth microdilution assay. The format is cell-based. The settings on record: MHB with 2.5% lysed horse blood, 24 h, median of three experiments. As for the experimental part: Antimicrobial activity was assessed by determining the MIC by broth dilution assay according to our previous reports[21],[35],[36] as per the Clinical and Laboratory Standards Institute[37]. Briefly, serial dilutions of compound 5, compound 7, and positive controls were prepared in cation-adjusted Mueller-Hinton Broth (MHB, Difco, Franklin Lakes, NJ, USA), 100 µl of which was dispensed into each well of a round-bottomed 96-well plate. The final concentrations in the well ranged from 128 µg/ml to 0.0625 µg/ml. Bacteria were grown at 37 °C overnight on either Luria Bertani (tryptone 10 g/l, yeast extract 5 g/l, NaCl 10 g/l) or Tryptic Soy Broth (TSB, Difco) agar plates or sheep blood agar plates (Eiken Chemical Co. Ltd., Tokyo, Japan). Bacterial inoculum was prepared by direct suspension of the colonies in 0.9% saline, and adjusted to obtain a turbidity equivalent to a 0.5 McFarland standard using a spectrophotometer UV-1280 (Shimadzu Corp., Kyoto, Japan). The suspension was then diluted 1:20 in cation-adjusted MHB (Difco), and 10 µl of it was inoculated into each well of previously prepared 96-well plates containing compounds to […] […] Vancomycin (Wako Pure Chemicals) or norfloxacin (Sigma Aldrich, St Louis, MO, USA) were used as positive controls. Each plate contained a growth control well and a vehicle control well. The MIC was determined as the minimum concentration that inhibited the growth of the bacteria.

Some results are limits rather than exact numbers.

The values below come from PMC5785531, “Pharmacokinetic parameters explain the therapeutic activity of antimicrobial agents in a silkworm infection model” (Scientific Reports, 2018).

Broadly, the MIC is the smallest concentration in the dilution series that meets the test's criterion for growth inhibition. Take `O=C(OCc1cc(Cl)cc(Cl)c1)c1ccc([N+](=O)[O-])s1` [compound 5]: the “metabolism by human liver S9 fractions” value in data set [1] is reported as “slowly metabolized compared with compound 7”. Further, the minimum inhibitory concentration (MIC) in data set [2] is > 128 µg/mL.

For `O=C(OCc1ccccc1)c1ccc([N+](=O)[O-])s1` [compound 7], the minimal inhibitory concentration (MIC) in data set [2] was > 128 µg/mL.
